What was measured:
bacteria = test: Growth of bacteria in presence of lysergol alone (killing activity); assay type: cell-based; settings: 10 µg/ml, no antibiotic
Description: The invention is further explained in the form of following embodiments. • 1. Assay for bio-enhancement of anti-infective agents • (a) The minimum inhibitory concentration (MIC) of antibiotic is determined against Escherichia coli (ATCC 10536), Bacillus subtilis (ATCC 6051) and Mycobacterium smegmatis (ATCC 14468) in broth and disc diffusion assay. • (b) The antibiotics at concentrations 1/4, 1/3, 1/2 and equal to MIC are added alone and in combination with the test compound at varying concentrations on disc and in broth to evaluate the comparative inhibition. • (c) These combinations showing significant advantage or higher activity than antibiotic alone in terms of enhanced inhibition of bacterial growth (large inhibition zone in disc diffusion and effectivity of lower concentration in broth assay) are picked up for future testing. • (d) In broth assay the activity is quantified by counting number of viable cells in a given treatment and converted in fold enhancement by combination compared to antibiotic / drug alone in the killing percentage of cells. • (e) The pretreatment assay followed to determine whether the compound is required along with antibiotic to enhance its activity or even its withdrawal after treatment or prior to antibiotic treatment would benefit. […]

Mycobacterium smegmatis = test: Broth assay, viable cell count: killing action of antibiotic alone and in combination with lysergol; assay type: cell-based, Mycobacterium smegmatis (ATCC 14468)
Description: (§1) The invention is further explained in the form of following embodiments. • 1. Assay for bio-enhancement of anti-infective agents • (a) The minimum inhibitory concentration (MIC) of antibiotic is determined against Escherichia coli (ATCC 10536), Bacillus subtilis (ATCC 6051) and Mycobacterium smegmatis (ATCC 14468) in broth and disc diffusion assay. • (b) The antibiotics at concentrations 1/4, 1/3, 1/2 and equal to MIC are added alone and in combination with the test compound at varying concentrations on disc and in broth to evaluate the comparative inhibition. • (c) These combinations showing significant advantage or higher activity than antibiotic alone in terms of enhanced inhibition of bacterial growth (large inhibition zone in disc diffusion and effectivity of lower concentration in broth assay) are picked up for future testing. • (d) In broth assay the activity is quantified by counting number of viable cells in a given treatment and converted in fold enhancement by combination compared to antibiotic / drug alone in the killing percentage of cells. • (e) The pretreatment assay followed to determine whether the compound is required along with antibiotic to enhance its activity or even its withdrawal after treatment or prior to antibiotic treatment would benefit. For this, the cells are treated with compound for 4 to 8 hours and then washed free of it by centrifugation and washing in sterile water. This is followed by treatment with antibiotic as in steps b to d.
(§2) Bioactivity is experimented with the killing activities of different antibiotics against the bacteria singly and in combination with the test compound Lysergol following the method described above. These experiments are being described in the following examples. […] In all the experiments the Lysergol concentration is kept at 10 µg/ml, unless it is specifically mentioned.
Lysergol mediated enhancement in the killing action of antibiotics against bacterium Mycobacterium smegmatis Table 3: […]

Bacillus subtilis = test: as above; assay type: cell-based, Bacillus subtilis (ATCC 6051)
Description: as §1, §2
Lysergol mediated enhancement in the killing action of antibiotics against Gram positive bacterium Bacillus subtilis.

[1] = Transport of antibiotics across freshly isolated gut membrane in U-shaped tubes (absorbency in right arm); assay type: in vitro ADME
Description: We performed the experiments in U-shaped tubes with joint in between, where the freshly isolated gut membrane is fixed. In control tube only antibiotic solution (4ml @ 1mg/ml solution) is poured in the left arm where as in the right arm only water is poured. In the other tube in addition to the antibiotic solution lysergol (4µg @ 1µg/ml) is added.

Escherichia coli = test: microbe, parasite or virus in culture
Description: The invention is further explained in the form of following embodiments. • 1. […] For this, the cells are treated with compound for 4 to 8 hours and then washed free of it by centrifugation and washing in sterile water. […] These experiments are being described in the following examples. […] In all the experiments the Lysergol concentration is kept at 10 µg/ml, unless it is specifically mentioned.

[2] = Escherichia coli, read-out: Survival fraction of viable cells upon treatment with antibiotic alone

Row | SMILES | killing of bacteria grown in presence of the compound as such (bacteria) | viability at 0.2 µg/mL (Mycobacterium smegmatis; Mycolicibacterium smegmatis, read-out: Survival fraction of viable cells upon treatment with antibiotic alone) | Survival fraction of viable cells upon treatment with antibiotic + lysergol combination (Mycobacterium smegmatis; antibiotic 0.2 µg/ml + lysergol 10 µg/ml) | Fold enhancement in antibiotic activity (Mycobacterium smegmatis; antibiotic 0.2 µg/ml + lysergol 10 µg/ml versus antibiotic alone) | viability at 0.4 µg/mL (Bacillus subtilis; Bacillus subtilis, read-out: Survival fraction of viable cells upon treatment with antibiotic alone) | Survival fraction of viable cells upon treatment with antibiotic + lysergol combination (Bacillus subtilis; antibiotic 0.4 µg/ml + lysergol 10 µg/ml) | Fold enhancement in antibiotic activity (Bacillus subtilis; antibiotic 0.4 µg/ml + lysergol 10 µg/ml versus antibiotic alone) | Increase in absorbency [1] | viability at 10 µg/mL (Escherichia coli; [2]) | viability at 20 µg/mL (Escherichia coli; [2]) | Fold enhancement in antibiotic activity (Escherichia coli; antibiotic 10 µg/ml + lysergol 10 µg/ml versus antibiotic alone) | Fold enhancement in antibiotic activity (Escherichia coli; antibiotic 20 µg/ml + lysergol 10 µg/ml versus antibiotic alone)
1 | CN1C[C@H](CO)C=C2c3cccc4[nH]cc(c34)C[C@H]21 [Lysergol, 9,10-Didehydro-6-methylergoline-8-[…]-methanol] | no significant killing | – | – | – | – | – | – | – | – | – | – | –
2 | CO[C@H]1/C=C/O[C@@]2(C)Oc3c(C)c(O)c4c(O)c(c(/C=N/N5CCN(C)CC5)c(O)c4c3C2=O)NC(=O)/C(C)=C\C=C\[C@H](C)[C@H](O)[C@@H](C)[C@@H](O)[C@@H](C)[C@H](OC(C)=O)[C@@H]1C [Rifampicin] | – | 45 to 54% | 0.09-0.10 | 4.5-6.0 fold | 8.5 to 9.6% | 0.021-0.028 | 3.0-4.6 fold | 0.131 | 35 to 45% | 25 to 30% | 6-12 fold | 3-5 fold
